# Measured values published in US6545021B1, “Use of substituted-1,5-dideoxy-1,5-imino-D-glucitol compounds for treating hepatitis virus infections” (G.D. Searle & Co., priority 1999, dated 2003).
# Columns and labels:
# [1] = test system: woodchuck hepatitis virus (WHV); test: Woodchuck model, N-nonyl-DNJ monotherapy, BID oral dosing; format: in vivo
# Method: Therefore, five groups of four animals each (all groups had both sexes, all but the control had two of each sex) were assigned to 0, 12.5, 25, 50, and 100 mg/kg/day with BID oral dosing. These were lab-reared wild animals. All animals were infected with woodchuck hepatitis virus (WHV) as neonates, and had been tested positive on serological tests for WHV surface antigen. Blood samples were drawn one week prior to dosing (−1 week), immediately before dosing (0 weeks), weekly during dosing (1, 2, 3, and 4 weeks), and after the end of dosing (5, 6, 8, and 10 weeks).
# (§1) There are two measures of drug efficacy: reduction in total HBV DNA (measured by quantitative PCR), and reduction in HBV DNA from capsids with intact surface glycoproteins, which is the active form of the virus (measured by an ELISA-like immune precipitation assay followed by quantitative PCR).
# Before models are fitted to the data, a log transform was applied because: 1) the variation in IPDNA increases with increasing IPDNA values; the log transformation gives values with a nearly constant variation, and 2) it is expected that drug effects will appear as a constant multiplier of the IPDNA level. Because there are zero values of IPDNA, a small value (about ½ of the smallest non-zero value) was added to all values before the log transform.
# Two approaches were used to model the changes in slope to week with dose of N-nonyl-DNJ: a linear modeling approach and a nonlinear model. Both approaches assume that the (linear) rate of change of the Log(IPDNA) measure over the dosing period is the “right” measure to reflect the effect of the drug on the virus. Both approaches are fit in stages, and the first stage is common to both approaches. First, a simple straight line regression model is fit using weeks 0-4 to predict log(IPDNA_+—10) separately for each animal by run combination. In the second stage, the response variable is the slope fitted in the first stage.
# For the linear approach, a model is fit with slope to week as the response where run is considered a block, dose has a significant effect (almost all of this effect is due to a slope to dose), and the relevant error for testing the effect of dose is the variation among animals treated alike (after the adjustment for the runs as blocks). This is similar to using the calibration data within each run to first adjust each run's data to a common virus DNA concentration; the difference is that here the data from the woodchucks are used for the run adjustment rather than only the calibration data.
# For the nonlinear approach, a four parameter logistic model is fit with the slope to week as the response and the dose as the predictor. Again, run is considered a block, but because no run has all weeks, it is not possible to fully reflect the blocking in the nonlinear approach. […] The average maximum slope observed was 2.71 additional Log(IPDNA g/mL)/week, or an increase of about 150%/week, the average minimum slope observed with N-nonyl-DNJ is 0.31 fewer Log(IPDNA g/mL)/week), or about a decrease of about 25%/week. The slopes, the fitted model, the parameter estimates from the model, and the approximate standard errors for these parameters are all shown in FIG. 3. […] Whether in woodchucks or humans, the effective dose of both the N-alkyl-DNJ and nucleoside or nucleotide antiviral agent administerd in combination therewith can be administerd in two equal daily subdoses (i.e., B.I.D.).
# HBV = test: Cell culture experiments with N-nonyl-DNJ: total HBV DNA and immune precipitated DNA; format: cell-based, hepatitis B virus
# From the text: as §1
structure (smiles),measurement,setting,value
"CCCCCCCCCN1C[C@H](O)[C@@H](O)[C@H](O)[C@H]1CO [N-nonyl-DNJ, N-(n-nonyl)-1,5-dideoxy-1,5-imino-D-glucitol]",effect on total HBV DNA measurements,"[1]; all dose levels, quantitative PCR",no effect
same,levels of IPDNA over the dosing period,"[1]; high dose animals, weeks 0-4",decreasing levels of IPDNA
same,levels of IPDNA over the dosing period,"[1]; low dose animals, weeks 0-4",increasing levels of IPDNA
same,average minimum slope observed,[1]; weeks 0-4,0.31 fewer Log(IPDNA g/mL)/week
same,decrease of IPDNA per week at average minimum slope,[1]; weeks 0-4,about 25 %/week
same,approximate effective monotherapy dose,[1]; woodchucks,about 16 mg/kg/day
same,effect on the immune precipitated DNA (IPDNA),HBV,marked effect
same,effect on total HBV DNA,HBV,little or no effect
